Consider six molecules from patent US12186353B2, “Method of reducing neuronal microtubule binding protein Tau (Tau) levels” (ADAERATA, LIMITED PARTNERSHIP, priority 2018, dated 2025).

Peptide text beside a SMILES is read from it. * marks the point of attachment. Cbz = O=C(OCc1ccccc1)*

One data set concerns RGCs. The data set is described as follows: RGC survival after intravitreal NMDA in Numb cKO and control mice. The data set is classed as in vivo, mouse. The settings on record: sublethal doses of NMDA in the eyes, 3 days later, Numb cKO mice compared to control. The protocol:
FIGS. 5A-C: Down regulation of Tau in Numb cKO RGCs rescues survival to control levels after NMDA-mediated excitotoxicity. FIG. 5A. Immunostaining for Brn3b on retina flat mounts in control and cKO 5-month-old mice 3 days after injection of saline (left panels, FIG. 5A) or NMDA (10 mM; right panels FIG. 5A). Images were taken in the ganglion cell layer. FIGS. 5B and C. Quantification of the number of Brn3b+RGCs per mm^2 in control and cKO mice 3 days after intravitreal injection of saline (FIG. 5B) or NMDA (FIG. 5C). Error bars represent SEM, * p≤0.05, n.s. non-significant; Student's t test. FIG. 5D. Analysis of Tau levels by western blot in retinal extract 24 h, 48 h or 72 h after injection of siRNA against Tau in the eye. […] FIG. 5E. […] Quantification of number of Brn3b RGC per mm^2 in control and cKO mice 72 h after injection. […]
RGCs survival was assessed by counting Brn3b-positive cells on retina flat mounts the within four square (212 um×212 um) areas around the optic nerve disc, and averaging this number per retina and calculate with the area by multiplied by the total area of square. Cell type quantification in retinal section were made by averaging the total number of positive cells for specific markers in a […] region of the central and peripheral retina on 4 different retinal sections per animal. […]

For a further data set, the system named is Tau::GFP fusion protein. Description: Intracellular Tau::GFP fluorescence in stable inducible HEK293 cells with proteasome or lysosome inhibitor. The data set is classed as cell-based. The settings on record: inhibitor 25 uM for 4 h before fixation. The protocol: FIG. 7A Stable inducible cell line HEK293 that express a Tau::GFP fusion protein was transfected with Control Myc or Numb72::Myc, and the Tau::GFP expression was activated by adding Doxycycline 6 h later. The cells were fixed 48 h later and stained for Myc. FIG. 7B. The mean intensity (±SEM) of intracellular Tau::GFP fluorescence in transfected cells was quantified. Cells were treated with vehicle, MG132 (a proteasome inhibitor, 25 uM) or Chloroquine (a lysosome inhibitor, 25 uM) for 4 h before fixation and Myc staining. Quantification represents mean intensity +/− SEM, *p≤0.01; Anova 1-way test.
The potential role of the proteasome and of the lysosome on the ability of Numb to reduce Tau levels was assessed. A stable inducible cell line (HEK293) expressing a Tau::GFP fusion protein was transfected with
Numb72 or a control empty vector. The intracellular Tau::GFP levels was compared when the cells were treated with a proteasome inhibitor (MG132), a lysosome inhibitor (Chloroquine) or a control (vehicle). […] (FIGS. 7A-B).

The test system of another data set is Tau. The data set is described as follows: Western blot of Tau fusion protein levels in HEK293T cells co-expressing Numb isoforms. Particulars: 48 hours after transfection. The data set is classed as cell-based. From the text: FIGS. 6A-I: Isoform Numb-72 interacts with Tau and regulates Tau level. FIG. 6A. Schematic of 4 Numb isoforms, differing with the presence or the absence of an insertion (arrowhead) in PTB domain arrowhead, and the presence or the absence of an insertion in the proline-rich region (PRR). FIG. 6B. Coimmunoprecipitation of Tau and 4 isoforms of Numb in HEK293 cells. Each Numb isoform was transfected in HEK293T cells together with a flag-tagged version of Tau and immunoprecipitation was perform 24 hours later with a flag antibody and blotted for Numb. […] FIG. 6C. Detection of Tau::GFP level in presence of 4 isoforms of Numb by western blot in HEK293. All the Numb isoforms were transfected with a Tau::GFP fusion protein in HEK293T cells and the levels of Tau::GFP was analysed by western blot 48 hours after transfection. FIG. 6D. Schematic representation of DNA construct of a human-medulloblastoma-derived cell line (DAOY) expressing human Tau fused with EGFP (Lasagna-Reeves et al., 2016). Additionally, this cell line expresses DsRed upstream of an internal ribosomal entry site (IRES), which is translated independently of the Tau-GFP protein. DsRed-IRES-Tau::EGFP expressing cells were used to assess the abundance of Tau by monitoring the Tau-GFP to DsRed fluorescence ratio. FIG. 6E. DsRed and Tau::EGF expression in Daoy cells, transfected with Myc only construct. FIGS. 6F-J. Fluorescence-activated cell sorting (FACs) analysis of the 4 Numb isoforms affected 3 days after transfection on ratio DsRed versus DsRed and GFP-positives cells compared to the control (Myc-Tag). FIG. 6K Quantification represents fold change for 5 experiments, +/− SEM, **p≤0.001; n.s. non-significant Anova 1-way test.
Numb72::Myc. HEK293T cells were transfected with Jet Prime using the following constructs Tau::Flag, Tau::GFP, Numb65, Numb66, Numb71 and Numb72.
Cells were harvested, and lysed in a NP-40 buffer (50 mm TRIS, pH 8.0, 150 mm NaCl, 1.0% NP-40 with Complete Protease Inhibitor Cocktail (Roche)). For immunoblotting, 40 μg of protein samples for in vivo blot and 10 ug for in vitro blot were loaded on a 10% acrylamide SDS-PAGE gels for separation by electrophoresis migration and then transferred onto PVDF membranes using transblot machine (Millipore). […] The primary antibody was detected with an HRP-conjugated goat anti-rabbit (1:10,000; Jackson Immunoresearch) in 0.5% dry milk in TBST. […]
To determine whether increasing the levels of Numb could affect the levels of Tau, the inventors co-expressed all isoforms of Numb together with a Tau::Venus fusion protein in HEK293T cells and analyzed the levels of Tau::Venus by western blot 48 hours after transfection.

With `CN[C@H](CC(=O)O)C(=O)O` [NMDA, N-methyl-D-aspartate], the RGC numbers entry in the data set with RGCs is “two-fold reduction of RGC numbers”.

With `CC(C)C[C@@H](C=O)NC(=O)[C@H](CC(C)C)NC(=O)[C@H](CC(C)C)NC(=O)OCc1ccccc1` [MG132] (Cbz-Leu-Leu-Leu-aldehyde), the “effect of inhibitor on the ability of Numb72 to reduce Tau::GFP levels” value with Tau::GFP fusion protein is “neither the proteasome inhibitor nor the lysosome inhibitor abolished the ability of Numb72 to reduce Tau::GFP levels”.

With `CCN(CC)CCCC(C)Nc1ccnc2cc(Cl)ccc12` (stereo not drawn) [Chloroquine], the “effect of inhibitor on the ability of Numb72 to reduce Tau::GFP levels” value in the data set on Tau::GFP fusion protein is “neither the proteasome inhibitor nor the lysosome inhibitor abolished the ability of Numb72 to reduce Tau::GFP levels”.

B1: Numb-65: 65 kDa Numb isoform with short PTB domain and short PRR; human isoform 4 (SEQ ID NO: 7) (protein)
chain: MNKLRQSFRRKKDVYVPEASRPHQWQTDEEGVRTGKCSFPVKYLGHVEVDESRGMHICEDAVKRLKATGKKAVKAVLWVSADGLRVVDEKTKDLIVDQTIEKVSFCAPDRNFDRAFSYICRDGTTRRWICHCFMAVKDTGERLSHAVGCAFAACLERKQKREKECGVTATFDASRTTFTREGSFRVTTATEQAEREEIMKQMQDAKKAETDKIVVGSSVAPGNTAPSPSSPTSPTSDATTSLEMNNPHAIPRRHAPIEQLARQGSFRGFPALSQKMSPFKRQLSLRINELPSTMQRKTDFPIKNAVPEVEGEAESISSLCSQITNAFSTPEDPFSSAPMTKPVTVVAPQSPTFQGTEWGQSSGAASPGLFQAGHRRTPSEADRWLEEVSKSVRAQQPQASAAPLQPVLQPPPPTAISQPASPFQGNAFLTSQPVPVGVVPALQPAFVPAQSYPVANGMPYPAPNVPVVGITPSQMVANVFGTAGHPQAAHPHQSPSLVRQQTFPHYEASSATTSPFFKPPAQHLNGSAAFNGVDDGRLASADRHTEVPTGTCPVDPFEAQWAALENKSKQRTNPSPTNPFSSDLQKTFEIEL
modifications: homo sapiens
In the case of B1, in the data set with Tau, the “levels of Tau::Venus by western blot” value is “did not affect Tau levels”.

B2: Numb-71: 71 kDa Numb isoform with short PTB domain and long PRR; human isoform 3 (SEQ ID NO: 6) (protein)
chain: MNKLRQSFRRKKDVYVPEASRPHQWQTDEEGVRTGKCSFPVKYLGHVEVDESRGMHICEDAVKRLKATGKKAVKAVLWVSADGLRVVDEKTKDLIVDQTIEKVSFCAPDRNFDRAFSYICRDGTTRRWICHCFMAVKDTGERLSHAVGCAFAACLERKQKREKECGVTATFDASRTTFTREGSFRVTTATEQAEREEIMKQMQDAKKAETDKIVVGSSVAPGNTAPSPSSPTSPTSDATTSLEMNNPHAIPRRHAPIEQLARQGSFRGFPALSQKMSPFKRQLSLRINELPSTMQRKTDFPIKNAVPEVEGEAESISSLCSQITNAFSTPEDPFSSAPMTKPVTVVAPQSPTFQANGTDSAFHVLAKPAHTALAPVAMPVRETNPWAHAPDAANKEIAATCSGTEWGQSSGAASPGLFQAGHRRTPSEADRWLEEVSKSVRAQQPQASAAPLQPVLQPPPPTAISQPASPFQGNAFLTSQPVPVGVVPALQPAFVPAQSYPVANGMPYPAPNVPVVGITPSQMVANVFGTAGHPQAAHPHQSPSLVRQQTFPHYEASSATTSPFFKPPAQHLNGSAAFNGVDDGRLASADRHTEVPTGTCPVDPFEAQWAALENKSKQRTNPSPTNPFSSDLQKTFEIEL
modifications: homo sapiens
Turning to B2, in the data set with Tau, the “levels of Tau::Venus by western blot” value is “did not affect Tau levels”.

B3: Numb-66: 66 kDa Numb isoform with long PTB domain and short PRR; human isoform 2 (SEQ ID NO: 3) (protein)
chain: MNKLRQSFRRKKDVYVPEASRPHQWQTDEEGVRTGKCSFPVKYLGHVEVDESRGMHICEDAVKRLKAERKFFKGFFGKTGKKAVKAVLWVSADGLRVVDEKTKDLIVDQTIEKVSFCAPDRNFDRAFSYICRDGTTRRWICHCFMAVKDTGERLSHAVGCAFAACLERKQKREKECGVTATFDASRTTFTREGSFRVTTATEQAEREEIMKQMQDAKKAETDKIVVGSSVAPGNTAPSPSSPTSPTSDATTSLEMNNPHAIPRRHAPIEQLARQGSFRGFPALSQKMSPFKRQLSLRINELPSTMQRKTDFPIKNAVPEVEGEAESISSLCSQITNAFSTPEDPFSSAPMTKPVTVVAPQSPTFQGTEWGQSSGAASPGLFQAGHRRTPSEADRWLEEVSKSVRAQQPQASAAPLQPVLQPPPPTAISQPASPFQGNAFLTSQPVPVGVVPALQPAFVPAQSYPVANGMPYPAPNVPVVGITPSQMVANVFGTAGHPQAAHPHQSPSLVRQQTFPHYEASSATTSPFFKPPAQHLNGSAAFNGVDDGRLASADRHTEVPTGTCPVDPFEAQWAALENKSKQRTNPSPTNPFSSDLQKTFEIEL
modifications: homo sapiens
For the molecule B3, the “levels of Tau::Venus by western blot” value with Tau is on record as “significantly reduced the levels of Tau”.
